For assay [1], the target named is T1, PARP14 (Homo sapiens, UniProt Q460N5).
T1 sequence (Q460N5 1611-1801): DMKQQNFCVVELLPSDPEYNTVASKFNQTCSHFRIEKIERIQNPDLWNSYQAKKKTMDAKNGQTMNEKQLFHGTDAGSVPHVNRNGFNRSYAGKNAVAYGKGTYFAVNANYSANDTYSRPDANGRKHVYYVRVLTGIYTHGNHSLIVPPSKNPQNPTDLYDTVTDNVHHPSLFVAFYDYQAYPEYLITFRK
Put plainly: NanoBRET probe displacement assay (Probe A) in live 293T cells, PARP14. The assay is classed as cell-based. The note with it: NanoBRET displacement of Probe A, NanoLuc-tagged PARP14 in live 293T cells. As for the experimental part: MonoPARP genes from Table 5 were cloned into the pcDNA3.1-mammalian expression vector as a NanoLuc fusion with NanoLuc on the N- or C-terminus as indicated. The sequence of the NanoLuc tag is as follows: [table] Displacement of a fluorescently-labeled compound Probe A binding to NanoLuc-tagged monoPARP enzymes was measured in live cells using a bioluminescence resonance energy transfer (NanoBRET) assay. TIPARP, PARP10, PARP12 or PARP14 fused to a NanoLuc tag were overexpressed in 293T cells (ATCC) using the plasmids described herein. Plasmid DNA and empty vector DNA were added to phenol red free OptiMEM (Thermo Fisher) as shown in Table 6 in a total volume of 2.456 mL. 157 μL of Fugene HD (Promega) was added to the DNA mixture and allowed to incubate 5 min at 25° C. [table] Next, 2.375 mL of the plasmid-Fugene mixture were added to 20 million 293T cells in DMEM (Thermo Fisher) supplemented with 10% FBS (VWR). The transfection was incubated for 24 h at 37° C. in an incubator containing air supplemented with 5% CO2. The cells were resuspended in phenol red free OptiMEM media. 40 μL of cells were then added to white polystyrene 384-well non-binding surface microplate (Corning). […] Filtered luminescence was measured on an Envision (Perkin Elmer) equipped with a dual 585 nm mirror, 460±40 nm bandpass filter (donor) and 610±50 nm longpass filter (acceptor). […]
Background: In BRET a luciferase serves as donor, and the signal depends on an acceptor being close.

The target in assay [2] is T2, PARP10 (Homo sapiens, UniProt Q53GL7).
T2 sequence (Q53GL7 808-1025): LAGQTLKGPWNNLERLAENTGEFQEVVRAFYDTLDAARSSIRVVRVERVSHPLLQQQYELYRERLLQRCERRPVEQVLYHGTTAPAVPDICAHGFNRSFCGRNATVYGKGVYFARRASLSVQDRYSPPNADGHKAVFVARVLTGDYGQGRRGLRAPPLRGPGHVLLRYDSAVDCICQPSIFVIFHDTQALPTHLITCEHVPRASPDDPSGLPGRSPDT
The assay is described as follows: In vitro TR-FRET probe displacement assay (Probe C), PARP10. The assay is classed as binding. Details: made in house; host or cells: E. coli. The note with it: TR-FRET displacement of Probe C, PARP10 residues 808-1025. As for the experimental part: A portion of PARP10 (residues 808 to 1025 of NP_116178.2 (SEQ ID NO: 2), GenBank Accession No. NM_032789.4) was overexpressed in E. coli cells. An N-terminal fusion tag, MAHHHHHHENLYFQSM (SEQ ID NO: 8), was used to purify the protein from cell lysates. The fusion tag was left on the protein for use in the probe displacement assay.
Displacement of a Probe C binding to monoPARP active sites was measured using a time-resolved fluorescence resonance energy transfer (TR-FRET) assay. 20 nL of a dose response curve of each test compound was spotted in black 384-well polystyrene proxiplates (Perkin Elmer) using a Mosquito (TTP Labtech). Reactions were performed in an 8 μL volume by adding 6 μL of the monoPARP and Probe C in assay buffer (20 mM HEPES pH=8, 100 mM NaCl, 0.1% bovine serum albumin, 2 mM DTT and 0.002% Tween20), incubating with test compound at 25° C. for 30 min, then adding 2 μL of ULight-anti 6×His and LANCE Eu-W 1024 labeled streptavidin (Perkin Elmer). Binding reactions were equilibrated at 25° C. for an additional 30 min, then read on an Envision platereader equipped with a LANCE/DELFIA top mirror (Perkin Elmer) using excitation of 320 nm and emission of 615 nm and […] with a 90 μs delay. The ratio of the 665/615 nm emission were calculated for each well to determine the amount of complex of monoPARP and Probe C in each well. […]
Background: Time-resolved FRET reads energy transfer from a long-lived donor to a nearby acceptor.

The IC50 is the midpoint of a concentration-inhibition curve.

Regarding `O=c1[nH]ncc(N2Cc3ccc(OC4CCNCC4)cc3C2)c1C(F)(F)F` [Compound A, 5-[5-(Piperidin-4-yloxy)-2,3-dihydro-1H-isoindol-2-yl]-4-(trifluoromethyl)-2,3-dihydropyridazin-3-one], the IC50 was found to be 30 nM in assay [1] and 80 nM in assay [2].
